This passage reports IC50 results from patent publication US20220372040A1, “METTL3 MODULATORS” (Accent Therapeutics, Inc., priority 2020, published 2022).

Where two headings read alike, the source gives them in different places. Some results are limits rather than exact numbers.

Assay [1] deals with m^6 A in cellular mRNA of MOLM-13 cells. Put plainly: m^6 A-mRNA LC-MS/MS assay (m^6 A cellular assay). It counts as cell-based. The settings on record: Homo sapiens, 24 hours incubation, LC-MS/MS of m^6 A/A in mRNA. The method, then:
m^6 A-mRNA LC-MS/MS Assay
5×10^6 MOLM-13 (DSMZ) cells were seeded into 10 cm dishes in RPMI 1640 media containing 10% fetal bovine serum and placed in a humidified tissue culture incubator at 37° C. overnight. Compounds were resuspended in 100% DMSO and dosed into each dish at a fixed concentration to comprise an 8-point dose response with a 4-fold serial dilution ranging from 25 μM to 1.5 nM in 0.25% DMSO final and allowed to incubate for 24 hours in a humidified tissue culture incubator at 37° C. Cells were harvested by centrifugation followed by mRNA extraction using DTRECT Dynabeads mRNA DTRECT kit (Life Technologies). mRNA was quantified on NanoDrop spectrophotometer (Thermo Fisher Scientific) and digested into single nucleosides using Nucleoside Digestion Mix (New England Biolabs). Nucleosides are quantified with retention time on a BEH […] column (Waters) and the nucleoside-to-base ion mass transition of 282.1-150.1 (m^6 A) and 268-136 (A) on an API 6500+ triple quadrupole mass spectrometer. Quantification is performed in comparison with the standard curve, obtained from pure nucleoside standards (Selleck Chemicals) running with the same batch of samples. Percentage m^6 A in cellular mRNA is calculated as 100*(m^6 A/A).

Assay [2] has as its system MOLM-13 cells. The assay is described as follows: MOLM-13 48 Hour cell proliferation assay (Cell Titer-Glo). Type of assay: cell-based. The settings on record: Homo sapiens. The method, then:
MOLM-13 48 Hour Cell Proliferation Assay
MOLM-13 (DSMZ) cells were seeded at 1000 cells per well in a volume of 44 μL in a Falcon 384-well tissue culture treated clear bottom microplate in RPMI 1640 media containing 10% fetal bovine serum using a Multidrop Combi (ThermoFisher Scientific). Cells were incubated overnight at 37° C. in a humidified tissue culture incubator. The Mosquito® HTS Liquid Handler was used to make a compound/media intermediate plate by aliquoting […] of compound from the initial compound dilution plate (concentrations ranging from 10.0 mM to 38.0 nM in 100% DMSO) into a V bottom 384-well screen matrix plate containing 49 µL of media containing the appropriate serum (50-fold dilution, 2% DMSO). The Apricot liquid handling system was used to transfer […] compounds from the intermediate plate into the Falcon 384-well tissue culture plate containing 44 μL cells (10-point, 4-fold dilution spanning concentrations 25.0 μM to […], 0.25% DMSO final), and placed in a humidified tissue culture incubator at 37° C. After 48 hours, 25 μL of Cell Titer-Glo reagent (Promega) was added to each well using a Multidrop Combi. The plate was protected from light and placed on an IKA plate shaker for at 300 rpm for 10 minutes at room temperature. The plate was read on an EnVision plate reader (Perkin Elmer) using the Ultra Sensitive Luminescence protocol. Data analysis was performed by normalizing the raw luminescence units to an average of the positive control values for staurosporine (100% cell death) and the negative control values for DMSO (0% cell death). An IC50 was calculated using a 4-parameter logistic nonlinear regression model in GraphPad Prism.
For orientation: In ATP-based viability assays light output follows the ATP content of the culture.

The target in a further assay is METTL3/METTL14 (Homo sapiens, UniProt Q86U44). The assay is described as follows: METTL3-14 standard enzyme assay (3H-SAM flashplate scintillation). It counts as biochemical. The settings on record: METTL3/METTL14 2.5 nM, RNA 100 nM, 3H-SAM 100 nM, 30 min. The essentials:
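Radiometric methylation readout: biotinylated RNA substrate UCUGGACUAAA and 3H-SAM, each 100 nM final, reacted 30 min at ambient temperature with 2.5 nM enzyme complex after 5 min compound preincubation (HEPES pH 7.5 buffer, KCl, MgCl2, DTT). Excess unlabelled SAM (15 μM) stopped reactions before streptavidin flashplate capture.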

The next assay addresses PRMT5-MEP50 (Homo sapiens, UniProt O14744). Put plainly: PRMT5 assay (3H-SAM flashplate scintillation). The settings on record: PRMT5-MEP50 2.5 nM, histone H4 peptide 100 nM, 3H-SAM 250 nM, 60 min. Type of assay: biochemical. The essentials:
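Radiometric methyltransferase read-out: after 60 min reaction, excess unlabelled SAM (15 μM) stops turnover and biotinylated H4 peptide (100 nM) carrying 3H-methyl from 250 nM 3H-SAM is captured on streptavidin flashplates (2 h, 25° C) for scintillation counting. Enzyme, 2.5 nM PRMT5-MEP50, was preincubated 5 min with compound in pH 8.0 Tris buffer with DTT and Tween.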

A further assay deals with T1, METTL16 (Homo sapiens, UniProt Q86W50).
T1 sequence (Q86W50 1-562): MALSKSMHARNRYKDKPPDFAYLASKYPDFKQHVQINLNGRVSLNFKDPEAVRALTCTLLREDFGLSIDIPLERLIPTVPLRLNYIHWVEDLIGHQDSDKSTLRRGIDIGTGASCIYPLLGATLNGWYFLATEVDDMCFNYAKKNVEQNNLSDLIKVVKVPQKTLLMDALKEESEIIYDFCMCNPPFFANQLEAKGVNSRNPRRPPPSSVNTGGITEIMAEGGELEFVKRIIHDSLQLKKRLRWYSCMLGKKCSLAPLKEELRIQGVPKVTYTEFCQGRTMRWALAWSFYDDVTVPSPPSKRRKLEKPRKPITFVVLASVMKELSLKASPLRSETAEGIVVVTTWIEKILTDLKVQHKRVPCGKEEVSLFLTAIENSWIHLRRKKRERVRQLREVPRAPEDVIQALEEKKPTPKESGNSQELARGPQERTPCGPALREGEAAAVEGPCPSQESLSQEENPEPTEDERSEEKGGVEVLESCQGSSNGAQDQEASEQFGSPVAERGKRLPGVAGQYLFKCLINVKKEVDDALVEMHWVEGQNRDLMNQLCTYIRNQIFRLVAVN
The assay is described as follows: METTL16 assay (3H-SAM flashplate scintillation). The settings on record: METTL16 100 nM, RNA 50 nM, 3H-SAM 200 nM, SAM 800 nM, 20 min. It counts as biochemical. The essentials: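 Radiometric methyltransferase reaction at ambient temperature in 20 mM HEPES pH 7.5, 50 mM KCl, 1 mM DTT, with 100 nM enzyme preincubated 5 min with compound. It was started with 50 nM 3′-biotinylated RNA, 200 nM 3H-SAM plus 800 nM cold SAM, run 20 min, then quenched with excess cold SAM. Product was captured on streptavidin flashplates and scintillation-counted.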

For a further assay, the target named is METTL1/WDR4 (Homo sapiens, UniProt Q9UBP6). Put plainly: METTL1 assay (3H-SAM flashplate scintillation). It counts as biochemical. The essentials: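 Radiometric methyltransfer by METTL1/WDR4 (6.25 nM f.c., 5 min preincubation) at ambient temperature in HEPES pH 7.5, KCl, MgCl2, DTT; started with 25 nM 3′-biotinylated RNA and 60 nM 3H-SAM, run 20 min, quenched with 15 μM cold SAM. Product captured on streptavidin flashplates (2 h, 25° C), counted by scintillation.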

Assay [3] has as its system MOLM-13 cells. The assay is described as follows: MOLM-13 96 Hour cell proliferation assay (Cell Titer-Glo). The settings on record: Homo sapiens. Type of assay: cell-based. Summed up:
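MOLM-13 cells were seeded at 600 cells/well in RPMI 1640 with 10% FBS, then incubated overnight. Compounds were added at 0.25% DMSO final for 96 h at 37° C, with CellTiter-Glo luminescence read-out. Values normalized to staurosporine (100% death) and DMSO (0%); IC50 from 4-parameter logistic fit.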

The mark [4] stands for this setting: METTL1/WDR4 6.25 nM, RNA 25 nM, 3H-SAM 60 nM, 20 min, read-out: METTL1 IC50.

METTL3/METTL14, sequence (Q86U44 whole entry, species assumed): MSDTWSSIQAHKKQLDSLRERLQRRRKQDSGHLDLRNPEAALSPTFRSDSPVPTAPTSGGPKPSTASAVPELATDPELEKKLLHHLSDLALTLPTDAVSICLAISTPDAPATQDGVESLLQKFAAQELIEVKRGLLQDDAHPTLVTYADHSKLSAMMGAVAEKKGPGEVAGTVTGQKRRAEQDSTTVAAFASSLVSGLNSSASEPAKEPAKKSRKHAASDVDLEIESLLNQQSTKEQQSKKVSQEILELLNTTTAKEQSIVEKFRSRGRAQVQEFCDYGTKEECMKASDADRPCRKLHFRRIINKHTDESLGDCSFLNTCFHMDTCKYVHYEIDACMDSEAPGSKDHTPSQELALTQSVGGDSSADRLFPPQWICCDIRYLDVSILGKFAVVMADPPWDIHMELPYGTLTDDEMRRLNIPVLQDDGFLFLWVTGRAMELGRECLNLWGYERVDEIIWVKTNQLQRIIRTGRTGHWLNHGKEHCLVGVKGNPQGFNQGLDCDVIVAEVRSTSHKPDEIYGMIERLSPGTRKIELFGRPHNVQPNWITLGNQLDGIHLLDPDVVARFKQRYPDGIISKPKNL
METTL3/METTL14, sequence (Q9HCE5 whole entry partner, species assumed): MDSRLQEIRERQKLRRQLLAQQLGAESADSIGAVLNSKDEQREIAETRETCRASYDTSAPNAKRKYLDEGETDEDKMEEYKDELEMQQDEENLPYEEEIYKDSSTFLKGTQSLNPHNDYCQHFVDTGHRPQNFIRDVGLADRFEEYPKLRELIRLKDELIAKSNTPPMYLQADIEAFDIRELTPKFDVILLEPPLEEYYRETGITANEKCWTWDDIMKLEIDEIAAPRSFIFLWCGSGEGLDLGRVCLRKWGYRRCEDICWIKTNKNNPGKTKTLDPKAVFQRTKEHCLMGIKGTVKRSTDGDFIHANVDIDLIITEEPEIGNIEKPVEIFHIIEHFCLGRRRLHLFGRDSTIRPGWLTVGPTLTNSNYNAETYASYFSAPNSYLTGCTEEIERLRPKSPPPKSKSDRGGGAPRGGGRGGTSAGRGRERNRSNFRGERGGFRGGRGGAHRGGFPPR
PRMT5-MEP50, sequence (O14744 whole entry): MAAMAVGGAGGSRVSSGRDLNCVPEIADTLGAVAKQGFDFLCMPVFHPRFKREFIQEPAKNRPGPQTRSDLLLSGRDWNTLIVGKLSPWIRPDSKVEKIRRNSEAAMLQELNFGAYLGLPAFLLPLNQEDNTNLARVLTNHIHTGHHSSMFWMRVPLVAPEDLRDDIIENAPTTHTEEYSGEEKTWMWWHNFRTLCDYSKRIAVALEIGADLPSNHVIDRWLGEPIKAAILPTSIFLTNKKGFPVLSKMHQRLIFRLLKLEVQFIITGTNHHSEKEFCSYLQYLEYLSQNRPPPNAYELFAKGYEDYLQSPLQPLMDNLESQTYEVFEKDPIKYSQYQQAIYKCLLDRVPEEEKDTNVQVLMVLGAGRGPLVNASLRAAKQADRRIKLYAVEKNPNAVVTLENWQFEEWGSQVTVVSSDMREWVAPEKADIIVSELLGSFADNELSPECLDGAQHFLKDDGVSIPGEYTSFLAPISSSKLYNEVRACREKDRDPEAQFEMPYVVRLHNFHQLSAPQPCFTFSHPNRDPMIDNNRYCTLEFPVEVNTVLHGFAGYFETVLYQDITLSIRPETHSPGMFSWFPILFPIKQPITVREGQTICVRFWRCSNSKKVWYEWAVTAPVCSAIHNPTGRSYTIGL
PRMT5-MEP50, sequence (Q9BQA1 whole entry partner): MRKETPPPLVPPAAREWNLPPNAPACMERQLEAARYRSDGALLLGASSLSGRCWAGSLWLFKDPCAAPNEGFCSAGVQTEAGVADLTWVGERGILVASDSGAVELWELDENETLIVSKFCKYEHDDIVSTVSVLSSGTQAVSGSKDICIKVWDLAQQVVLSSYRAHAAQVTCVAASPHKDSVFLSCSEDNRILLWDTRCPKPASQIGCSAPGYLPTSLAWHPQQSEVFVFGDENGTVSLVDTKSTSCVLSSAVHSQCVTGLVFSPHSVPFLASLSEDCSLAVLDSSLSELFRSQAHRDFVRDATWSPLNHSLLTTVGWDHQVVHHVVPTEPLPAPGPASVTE
METTL1/WDR4, sequence (Q9UBP6 whole entry, species assumed): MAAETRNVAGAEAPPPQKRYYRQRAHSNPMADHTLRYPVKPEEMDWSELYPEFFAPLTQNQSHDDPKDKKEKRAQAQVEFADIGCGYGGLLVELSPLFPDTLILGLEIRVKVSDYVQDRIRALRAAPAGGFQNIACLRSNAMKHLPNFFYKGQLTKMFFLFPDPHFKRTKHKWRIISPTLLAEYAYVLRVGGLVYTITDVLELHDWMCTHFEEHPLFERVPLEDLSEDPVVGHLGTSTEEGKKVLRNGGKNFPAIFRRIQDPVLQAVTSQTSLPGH
METTL1/WDR4, sequence (P57081 whole entry partner, species assumed): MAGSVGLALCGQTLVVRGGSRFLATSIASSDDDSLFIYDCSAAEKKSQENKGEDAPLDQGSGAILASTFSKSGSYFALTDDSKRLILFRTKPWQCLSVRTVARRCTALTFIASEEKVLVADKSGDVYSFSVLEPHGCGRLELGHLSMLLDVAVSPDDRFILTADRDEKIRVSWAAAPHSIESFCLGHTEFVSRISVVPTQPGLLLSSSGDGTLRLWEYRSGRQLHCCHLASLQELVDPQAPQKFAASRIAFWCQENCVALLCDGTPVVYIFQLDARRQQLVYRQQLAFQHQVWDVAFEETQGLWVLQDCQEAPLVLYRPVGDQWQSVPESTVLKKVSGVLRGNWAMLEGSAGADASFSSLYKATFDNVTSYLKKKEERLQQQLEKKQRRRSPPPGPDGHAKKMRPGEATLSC

For orientation: IC50 means the midpoint of a concentration-inhibition curve. Regarding `CCc1cc(N)c2ccc(OCc3cncc(-n4ccc5c(N)ncnc54)c3)cc2n1` [Compound I-45], the IC50 was no less than 10000 nM in assay [1]; no less than 10000 nM with MOLM-13 cells [2]; less than 10 nM against METTL3/METTL14; greater than 1000 nM against PRMT5-MEP50; greater than 1000 nM against METTL16.
Regarding `CNc1ccc2ccc(OCc3cncc(-n4ccc5c(N)ncnc54)n3)cc2n1` [Compound I-14], the IC50 in assay [1] was 1000 to 10000 nM; in the assay with MOLM-13 cells [2] it was 1000 to 10000 nM; on METTL3/METTL14 it was less than 10 nM; on PRMT5-MEP50 it was greater than 1000 nM; on METTL1/WDR4 (setting [4]) it was greater than 1000 nM.
Regarding `CNc1ccc2ccc(OCc3cncc(-n4ccc5c(N)ncnc54)c3)cc2n1` [Compound I-60], the IC50 in assay [1] is 1000 to 10000 nM; in the assay with MOLM-13 cells [2], less than 1000 nM; on METTL3/METTL14 it was less than 10 nM; on PRMT5-MEP50, greater than 1000 nM; against METTL16, greater than 1000 nM.
Take `CCNc1ccc2ccc(OCc3cncc(-n4cc(Cl)c5c(N)ncnc54)c3)cc2n1` [Compound I-59]: the IC50 was 1000 to 10000 nM in assay [1]; 1000 to 10000 nM in the assay with MOLM-13 cells [2]; less than 10 nM on METTL3/METTL14; greater than 1000 nM on PRMT5-MEP50; greater than 1000 nM against METTL16.
Turning to `CCc1cc(NCCOC)c2ccc(OCc3cncc(-n4ccc5c(N)ncnc54)c3)cc2n1` [Compound I-16], the IC50 in assay [1] was 1000 to 10000 nM; with MOLM-13 cells [2] it was 1000 to 10000 nM; at METTL3/METTL14, less than 10 nM; against PRMT5-MEP50 it was greater than 1000 nM; on METTL1/WDR4 (setting [4]) it was greater than 1000 nM.
Turning to `CNc1ccc2ccc(OCc3cc(CO)cc(-n4ccc5c(N)ncnc54)c3)cc2n1` [Compound I-6], the IC50 is no less than 10000 nM with MOLM-13 cells [2]; less than 10 nM against METTL3/METTL14; greater than 1000 nM at PRMT5-MEP50; greater than 1000 nM on METTL1/WDR4 (setting [4]); 1000 to 10000 nM with MOLM-13 cells [3].
Take `Cc1cc(NCCN(C)C)c2ccc(OCc3cncc(-n4cc(Cl)c5c(N)ncnc54)c3)cc2n1` [Compound I-42]: the IC50 in the assay with MOLM-13 cells [2] was less than 1000 nM; on METTL3/METTL14 it was 10 to 100 nM; on PRMT5-MEP50, greater than 1000 nM; at METTL16 it was greater than 1000 nM.
For `CC(C)c1cc(N)c2ccc(OCc3cncc(-n4ccc5c(N)ncnc54)c3)cc2n1` [Compound I-12], the IC50 in the assay with MOLM-13 cells [2] was 1000 to 10000 nM; against METTL3/METTL14 it was less than 10 nM; on PRMT5-MEP50 it was greater than 1000 nM; on METTL1/WDR4 (setting [4]), greater than 1000 nM; in the assay with MOLM-13 cells [3], 1000 to 10000 nM.
As to `CNc1ccc2ccc(OCc3cncc(-c4c[nH]c5c(N)ncnc45)c3)cc2n1` [Compound I-47, 7-[(5-{4-amino-5H-pyrrolo[3,2-d]pyrimidin-7-yl}pyridin-3-yl)methoxy]-N-methylquinolin-2-amine], the half-inhibitory concentration (IC50) in assay [1] is no less than 10000 nM; in the assay with MOLM-13 cells [2], no less than 10000 nM; on METTL3/METTL14, less than 10 nM; against PRMT5-MEP50 it was greater than 1000 nM; against METTL16, greater than 1000 nM.
For `CCc1cc(N)c2ccc(OCc3cncc(-n4cc(C5CCCC5)c5c(N)ncnc54)c3)cc2n1` [Compound I-11], the IC50 in assay [1] is 1000 to 10000 nM; with MOLM-13 cells [2] it was less than 1000 nM; against METTL3/METTL14, less than 10 nM; against PRMT5-MEP50, greater than 1000 nM; on METTL1/WDR4 (setting [4]) it was greater than 1000 nM.
In the case of `CNc1ccc2ccc(OCc3cncc(-c4c(C)[nH]c5c(N)ncnc45)c3)cc2n1` [Compound I-25], the IC50 in assay [1] is no less than 10000 nM; in the assay with MOLM-13 cells [2] it was no less than 10000 nM; against METTL3/METTL14 it was less than 10 nM; against PRMT5-MEP50 it was greater than 1000 nM; against METTL16 it was greater than 1000 nM.
With `CNc1ccc2ccc(OCc3cncc(-n4cc(C)c5c(N)ncnc54)c3)cc2n1` [Compound I-17], the IC50 in assay [1] is no less than 10000 nM; with MOLM-13 cells [2], less than 1000 nM; against METTL3/METTL14 it was less than 10 nM; against PRMT5-MEP50 it was greater than 1000 nM; at METTL1/WDR4 (setting [4]) it was greater than 1000 nM.
For the compound `CNc1ccc2ccc(CCc3cncc(-n4cc(-c5ccn(C)n5)c5c(N)ncnc54)c3)cc2n1` [Compound I-1, 7-(2-(5-(4-amino-5-(1-methyl-1H-pyrazol-3-yl)-7H-pyrrolo[2,3-d]pyrimidin-7-yl)pyridin-3-yl)ethyl)-N-methylquinolin-2-amine], the IC50 in assay [1] is less than 1000 nM; with MOLM-13 cells [2], less than 1000 nM; against METTL3/METTL14 it was less than 10 nM; at PRMT5-MEP50 it was greater than 1000 nM; on METTL1/WDR4 it was greater than 1000 nM.
For the compound `CNc1ccc2ccc(OCc3cncc(-c4cn(C5CCCC5)c5c(N)ncnc45)c3)cc2n1` [Compound I-18], the IC50 in assay [1] is 1000 to 10000 nM; in the assay on MOLM-13 cells [2], 1000 to 10000 nM; against METTL3/METTL14 it was less than 10 nM; against PRMT5-MEP50, greater than 1000 nM; at METTL1/WDR4 (setting [4]), greater than 1000 nM.
On to `CNc1ccc2ccc(OCc3cc(CO)cc(-c4c[nH]c5c(N)ncnc45)c3)cc2n1` [Compound I-10], for which the IC50 in assay [1] was no less than 10000 nM; in the assay with MOLM-13 cells [2], no less than 10000 nM; against METTL3/METTL14 it was less than 10 nM; against PRMT5-MEP50, greater than 1000 nM; on METTL1/WDR4 (setting [4]), greater than 1000 nM.
